From PMC6151740, “Pharmacokinetics, Tissue Distribution, and Elimination of Three Active Alkaloids in Rats after Oral Administration of the Effective Fraction of Alkaloids from Ramulus Mori, an Innovative Hypoglycemic Agent” (Molecules : A Journal of Synthetic Chemistry and Natural …, 2017)
Where two headings read alike, the source gives them in different places.

Legend:
[1] = Excretion into urine, feces and bile in rats after oral SZ–A; format: in vivo; settings: rat, SZ–A 40 mg/kg p.o.
Experimental: Five rats were kept in the metabolic cages with free access to water and food 2 h post dose. Urine was collected before dosing and at 0–4, 4–8, 8–24, 24–36, and 36–48 h, and feces was simultaneously collected before dosing and at 0–24, 24–36, and 36–48 h after oral dosing of SZ–A (40 mg/kg). Feces samples were dried and grinded into powder, then homogenized with normal saline solution (1:9, w/v). Additionally, the bile duct of rats under ether anesthesia were cannulated with a PE-10 tube (Portex Ltd., Kent, UK). Bile was collected before dosing and at 0–1, 1–2, 2–4, 4–6, 6–10, 10–20, 20–24, 24–28, and 28–32 h following oral administration of SZ–A (40 mg/kg). All urine, feces, and bile samples were stored at −20 °C until LC-MS/MS analysis.

[2] = Plasma pharmacokinetic study in rats after oral and intravenous administration of SZ–A or purified DNJ; format: in vivo, rat; settings: for AUC(0-inf) / AUC(0-t) / Tmax / half-life / clearance / MRT last / MRT inf / Vd / Cmax / CLz: rat plasma, n = 5; for clearance: read-out: CLz (converted); for MRT last: read-out: MRT0–t; for MRT inf: read-out: MRT0–∞; for bioavailability: plasma, read-out: F (oral absolute bioavailability)
Experimental: The oral dosing solutions used for all animal studies were prepared by dissolving in water. Thirty rats weighed 250–270 g after acclimation were randomly divided into six groups of five animals each. For oral administration, rats were treated with SZ–A (40, 200, 1000 mg/kg) or purified DNJ (15 mg/kg) dissolve in water. Blood samples (about 0.25 mL) were collected via the postorbital venous plexus veins under ether anesthesia into heparinized polythene tubes before dosing and at 0.08, 0.17, 0.33, 0.50, 1, 2, 3, 4, 6, 8, 12, 24 and 36 h after drug administration. For intravenous dosing, rats were given SZ–A (4 mg/kg) or DNJ (1.5 mg/kg) dissolved in normal saline solution through the tail vein. Then blood samples were collected at 0.03, 0.08, 0.17, 0.33, 0.67, 1, 2, 4, 6, 8, 12, 24, and 36 h under similar conditions. Considering the physical limit of blood in rats, during the process of the pharmacokinetic experiment, each rat was received 0.25 mL of sterile isotonic saline at each time point after blood sampling for compensation of body fluid loss, and the blood loss was also corrected at a definite degree. Plasma was separated by centrifuging the blood samples at 1660× g for 5 min and stored at −20 °C until LC-MS/MS analysis. Data fitting and pharmacokinetic parameter estimates were carried out using non–compartmental analysis via WinNonlin Software (version 6.1, Pharsight Corporation, Mountain View, CA, USA). F was calculated according to the formula: F (%) = (AUC oral/AUC i.v.) × (dose i.v./dose oral) × 100.
The plasma, feces, urine, and bile samples (100 μL) were added to 1 μL of Tris aqueous solution (2 M), 10 μL of IS working solution (2 μg/mL), and 190 μL methanol–acetonitrile (25:75, v/v). The incubation supernatant samples (300 μL) were mixed with 1 μL Tris aqueous solution (2 M) and 10 μL of IS working solution (2 μg/mL). All mixtures were vortexed for 30 s followed by centrifugation at 18,880× g for 5 min, twice.
Briefly, the LC-MS/MS instrument consisted of a 1260 HPLC system (Agilent, Santa Clara, CA, USA) and API4000 triple quadrupole mass spectrometer (Applied Biosystems Sciex, Toronto, ON, Canada) with an electrospray ionization (ESI) source and Analyst software (version 1.5.2, Applied Biosystems Sciex, Toronto, ON, Canada) for data acquisition and processing. DNJ, FGM, DAB, and IS were separated in a Xbridge amide™ column (3.5 μm, 4.6 mm × 150 mm; Waters, Milford, MA, USA) with a gradient mobile phase of acetonitrile-water (0.1% ammonium hydroxide) at a flow rate of 0.7 mL/min. An ESI source was used in the positive ion mode. The optimized mass spectrometric condition was as follows: ion spray voltage, 5500 V; collision gas, 6 psi; curtain gas, 20 psi; ion source gas 1 (GS1), 45 psi; ion source gas 2 (GS2), 45 psi; temperature, 450 °C. The multiple reaction monitoring (MRM) transitions of DNJ, FGM, DAB, and IS were m/z 164.0→110.1 (declustering potential (DP) 50 V, collision energy (CE) 22 V, collision cell exit potential (CXP) 10 V), 148.0→112.1 (DP 66 V, CE 21 V, CXP 10 V), 134.0→98.0 (DP 60 V, CE 20 V, CXP 10 V) and 208.0→146.1 (DP 50 V, CE 27 V, CXP 10 V), respectively.

[3] = Tissue distribution in rats after oral SZ–A; format: in vivo; settings: Sprague-Dawley, pancreas, rat, SZ–A 40 mg/kg p.o., 0.25, 0.5 and 2 h, n = 3, read-out: tissue to plasma ratio (T/P) in the pancreas
Experimental: Three groups of rats (three rats in each group) were administered with a single oral dose of SZ–A at 40 mg/kg. Rats each were sacrificed and various tissues, including liver, kidney, pancreas, stomach, duodenum, jejunum, ileum, cecum, colon, and the content in the gastrointestinal tract were collected at 0.25, 0.5, and 2 h time points. One additional rat was sacrificed predose to provide control tissues for analysis. After removing blood or content and weighing, each sample was individually homogenized with normal saline solution (1:3, w/v for tissue; 1:9, w/v for content) using a tissue homogenizer (Polytron PT1600E, Kinematica, Luzern, Switzerland) and stored at −20 °C until LC-MS/MS analysis.

[4] = Sprague-Dawley, iv, SZ–A 4 mg/kg i.v.
[5] = Sprague-Dawley, iv, purified DNJ 1.5 mg/kg i.v.
[6] = Sprague-Dawley, po, SZ–A 40 mg/kg p.o.
[7] = Sprague-Dawley, po, SZ–A 200 mg/kg p.o.
[8] = Sprague-Dawley, po, SZ–A 1000 mg/kg p.o.
[9] = Sprague-Dawley, po, purified DNJ 15 mg/kg p.o.

OC[C@H]1NC[C@H](O)[C@@H](O)[C@@H]1O [DNJ, 1-deoxynojirimycin]
dose excreted ([1]; bile, po, within 32 h, read-out: recovery in bile (% of dose)): 0.29% | cumulative excretion into feces (% of dose) ([1]; over a 24 h period, n = 5): 43.97% | cumulative excretion into urine (% of dose) ([1]; over a 24 h period, n = 5): 65.32% | AUC(0-inf) [2, 4]: 1400 ± 175 ng·h/mL | AUC(0-t) [2, 4]: 1400 ± 174 ng·h/mL | Tmax [2, 4]: 1.98 min | half-life [2, 4]: 17.4 ± 4.8 min | clearance [2, 4]: 18.1 mL/min/kg | MRT last [2, 4]: 48 ± 30 min | MRT inf [2, 4]: 49.2 ± 30.6 min | Vd ([2]; Sprague-Dawley, iv, SZ–A 4 mg/kg i.v., read-out: Vd): 0.453 ± 0.13 L/kg | AUC(0-inf) [2, 5]: 1140 ± 108 ng·h/mL | AUC(0-t) [2, 5]: 1130 ± 108 ng·h/mL | Cmax [2, 5]: 4520 ± 576 ng/mL | Tmax [2, 5]: 1.8 min | half-life [2, 5]: 15 ± 3 min | clearance [2, 5]: 22.2 mL/min/kg | MRT last [2, 5]: 28.8 ± 4.8 min | MRT inf [2, 5]: 30 ± 4.8 min | Vd ([2]; Sprague-Dawley, iv, purified DNJ 1.5 mg/kg i.v., read-out: Vd): 0.486 ± 0.0854 L/kg | bioavailability ([2]; Sprague-Dawley, po, rat, SZ–A 40 mg/kg p.o. vs SZ–A 4 mg/kg i.v.): 72.4% | bioavailability ([2]; Sprague-Dawley, po, rat, SZ–A 200 mg/kg p.o. vs SZ–A 4 mg/kg i.v.): 38.6% | bioavailability ([2]; Sprague-Dawley, po, rat, SZ–A 1000 mg/kg p.o. vs SZ–A 4 mg/kg i.v.): 33.3% | bioavailability ([2]; Sprague-Dawley, po, rat, purified DNJ 15 mg/kg p.o. vs DNJ 1.5 mg/kg i.v.): 59.4% | AUC(0-inf) [2, 6]: 10200 ng·h/mL | AUC(0-t) [2, 6]: 10100 ng·h/mL | Cmax [2, 6]: 6370 ± 1120 ng/mL | Tmax [2, 6]: 40.2 ± 17.4 min | half-life [2, 6]: 78 ± 15 min | MRT last [2, 6]: 103 ± 40.2 min | MRT inf [2, 6]: 107 ± 41.4 min | AUC(0-inf) [2, 7]: 27000 ng·h/mL | AUC(0-t) [2, 7]: 27000 ng·h/mL | Cmax [2, 7]: 10500 ng/mL | Tmax [2, 7]: 40.2 ± 12 min | half-life [2, 7]: 127 ± 28.2 min | MRT last [2, 7]: 158 ± 28.8 min | MRT inf [2, 7]: 163 ± 29.4 min | AUC(0-inf) [2, 8]: 117000 ng·h/mL | AUC(0-t) [2, 8]: 116000 ng·h/mL | Cmax [2, 8]: 25100 ng/mL | Tmax [2, 8]: 25.8 ± 5.4 min | half-life [2, 8]: 211 ± 51 min | MRT last [2, 8]: 307 ± 88.8 min | MRT inf [2, 8]: 315 ± 91.8 min | AUC(0-t) [2, 9]: 6730 ± 1150 ng·h/mL | Cmax [2, 9]: 4860 ± 1120 ng/mL | Tmax [2, 9]: 40.2 ± 17.4 min | half-life [2, 9]: 52.8 ± 8.4 min | MRT last [2, 9]: 106 ± 15 min | MRT inf [2, 9]: 111 ± 12.6 min | CLz ([2]; SZ–A 40 mg/kg p.o.): 25.013 ± 3.258 mL/min/kg | Vd ([2]; SZ–A 40 mg/kg p.o.): 2.8301 ± 0.7411 L/kg | CLz ([2]; SZ–A 200 mg/kg p.o.): 47.062 ± 6.693 mL/min/kg | Vd ([2]; SZ–A 200 mg/kg p.o.): 8.6178 ± 2.3175 L/kg | CLz ([2]; SZ–A 1000 mg/kg p.o.): 54.045 ± 4.968 mL/min/kg | Vd ([2]; SZ–A 1000 mg/kg p.o.): 16,468.3 ± 4217.0 mL/kg | CLz ([2]; purified DNJ 15 mg/kg p.o.): 37.693 ± 6.373 mL/min/kg | time to reach maximum plasma concentration (Cmax) ([2]; rat, after oral administration of SZ–A (40, 200, 1000 mg/kg), upper bound over doses): ≤ 0.67 h | average AUC of DNJ in the SZ–A group relative to the DNJ group ([2]; rat, intravenous injection, SZ–A 4 mg/kg vs purified DNJ 1.5 mg/kg): 1.2 fold | average AUC of DNJ in the SZ–A group relative to the DNJ group ([2]; rat, oral administration, SZ–A 40 mg/kg vs purified DNJ 15 mg/kg): 1.5 fold | Kp [3]: 0.06 to 0.47
